Measurements taken from patent US9682955B2, “Quinazoline derivatives useful as CB-1 inverse agonists” (Janssen Pharmaceutica NV, priority 2014, dated 2017).

Key:
[1] = target: Human CB1R (Cannabanoid receptor 1) (Homo sapiens (Human), UniProt P21554); test: CB-1 in vitro cAMP assay (HTRF); assay type: cell-based; details: mean where tested more than once
Excerpt: (§1) CB1 and CB2 receptors are Gi-coupled GPCR. Activation of CB1 and CB2 receptors results in a decrease in cAMP production. An inverse agonist of the CB1 or CB2 receptor results in the opposite effect, an increase of cAMP production. The principle of this assay is based on HTRF® technology (Homogeneous Time-Resolved Fluorescence). The method is a competitive immunoassay between native cAMP produced by cells and the cAMP labeled with the fluorophore d2. The tracer binding is quantified by a Mab anti-cAMP labeled with Eu3+TBP-NHS Cryptate (supplied as part of the assay kit). The specific signal (i.e. energy transfer) is inversely proportional to the concentration of cAMP in the standard or sample.
(§2) Human CB1R (Cannabanoid receptor 1) was stably transfected in HEK-293 cells (DiscoveRx, cat: 93-0200C1). Human CB2R (Cannabanoid receptor 2) was stably transfected in HEK-293 cells (DiscoveRx, cat: 93-0201C1). Cell cultures were maintained in media: DMEM (Invitrogen Cat#12430-054) supplemented with 10% HI FBS (Invitrogen Cat#16140-071), 1% L-glutamine (Invitrogen Cat#25030-081), 0.2 mg/ml Hygromycin B (Invitrogen Cat#10687-010), 600 μg/mL G418 (Invitrogen Cat#10131-035), and 1× Penn/Strep (Invitrogen 15140-122). After cell expansion, aliquots were cryo-stored in media containing 5% DMSO (Pierce Cat#20684).
(§3) One day prior to experiments media was warmed to 37° C. and the cryo-stored cells were thawed in a 37° C. water bath. The cells were then added to media (10× volume) and the mixture was centrifugated at 1000 RPM for 5 min. The supernate was removed and the cells were re-suspended in media. A sample of the cell suspension was evaluated on a Cedex XS automated cell counter (Innovatis Systems) to determine viable cells/ml. Additional media was added to the cells to achieve a final cell density of 4E5 cells/mL. The cells were then plated into 384 well PDL white solid bottom plates (Greiner, Cat#781945) at 20 μL per well using a Multidrop (Thermo Scientific). Cells were removed from Row P (location of cAMP standards). Two columns of cells were plated into a clear bottom 384 well PDL coated plate (Greiner, Cat#781944) to view confluence the day of the assay. The cell plates were lidded and stored for 15 minutes in a hood, then transferred to an incubator (37° C., 5% CO2, 95% humidity) overnight.
(§4) DMSO was added to all wells of 384 well V bottom polystyrene plate (Greiner, Cat#781280) except to columns 1 and 13, rows O and P and wells M13-M23 and N13-N23. Test compounds (60 μL, 10 mM) were added to Column 1 and 13 (A1 through N1 and A13 through L13). Test compounds were serially diluted 1/3 by transferring and mixing 20 μl sample with 40 μL DMSO.
(§5) DMSO (40 μL) was added to wells of 384 well V bottom polystyrene plate: O2 through O11, M14 through M23, N14 through N23, and O14 through O23. AM630 (also known as [6-iodo-2-methyl-1-[2-(4-morpholinyl)ethyl]-1H-indol-3-yl](4-methoxyphenyl)-methanone, Cayman Chemical, Cat#10006974) (60 μL, 10 mM) was added to O1; and 1-(2,4-dichlorophenyl)-7-[(4-fluorophenyl)methylene]-4,5,6,7-tetrahydro-N-1-piperidinyl-1H-indazole-3-carboxamide (60 μL, 10 mM) was added to N13. The control was serially diluted 1/3 by transferring and mixing 20 μl sample with 40 μL DMSO. This process resulted 11 doses per control, 10 mM to […].
(§6) Cells plated the day prior to the assay in clear bottom plates were viewed on an inverse microscope to ensure confluency in the range of 60-75%. […]

[2] = target: Human CB2R (Cannabanoid receptor 2) (Homo sapiens (Human), UniProt P34972); test: CB-2 in vitro cAMP assay (HTRF); assay type: cell-based; details: mean where tested more than once
Excerpt: as §1, §2, §3, §4, §5, §6

Human CB2R (Cannabanoid receptor 2), sequence (P34972 whole entry): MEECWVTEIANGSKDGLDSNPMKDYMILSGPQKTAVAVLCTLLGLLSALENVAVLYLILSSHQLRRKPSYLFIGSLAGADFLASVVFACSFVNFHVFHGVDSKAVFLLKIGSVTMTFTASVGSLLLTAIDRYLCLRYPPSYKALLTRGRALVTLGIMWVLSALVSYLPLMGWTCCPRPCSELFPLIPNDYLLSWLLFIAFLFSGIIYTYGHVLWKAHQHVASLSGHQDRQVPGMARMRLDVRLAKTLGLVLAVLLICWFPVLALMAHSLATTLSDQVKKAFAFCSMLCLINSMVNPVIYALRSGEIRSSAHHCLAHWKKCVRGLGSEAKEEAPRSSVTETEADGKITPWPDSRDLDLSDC
Human CB1R (Cannabanoid receptor 1), sequence (P21554 whole entry): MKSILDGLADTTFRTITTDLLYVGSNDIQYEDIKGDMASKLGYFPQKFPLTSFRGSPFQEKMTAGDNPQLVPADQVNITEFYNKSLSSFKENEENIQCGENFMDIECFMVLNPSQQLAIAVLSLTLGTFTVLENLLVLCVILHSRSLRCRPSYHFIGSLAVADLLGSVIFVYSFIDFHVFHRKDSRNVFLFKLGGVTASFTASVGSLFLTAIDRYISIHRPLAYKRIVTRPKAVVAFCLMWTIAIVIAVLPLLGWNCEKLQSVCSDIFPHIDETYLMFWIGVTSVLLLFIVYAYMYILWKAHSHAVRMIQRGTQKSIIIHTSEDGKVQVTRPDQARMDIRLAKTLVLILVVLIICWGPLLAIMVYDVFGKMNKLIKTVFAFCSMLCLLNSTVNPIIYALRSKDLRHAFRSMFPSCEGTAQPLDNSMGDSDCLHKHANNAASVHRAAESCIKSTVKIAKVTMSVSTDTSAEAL

O=C(O)c1csc(CN2CCC(Nc3ncnc4ccc(C(c5ccc(Cl)cc5)c5ccc(Cl)cc5)cc34)CC2)c1 [Compound #18, 5-((4-((6-(bis(4-chlorophenyl)methyl)quinazolin-4-yl)amino)piperidin-1-yl)methyl)thiophene-3-carboxylic acid]
EC50 [1]: 165 nM | EC50 [2]: 6260 nM

O=S(=O)(c1ccccc1)N1CCC(Nc2ncnc3ccc(C(c4ccc(Cl)cc4)c4ccc(Cl)cc4)cc23)CC1 [compound 109, 6-(bis(4-chlorophenyl)methyl)-N-(1-(phenylsulfonyl)piperidin-4-yl)quinazolin-4-amine]
EC50 [1]: 4 nM | EC50 [2]: > 10000 nM

O=C(O)COc1ccc(S(=O)(=O)N2CCC(Nc3ncnc4ccc(C(c5ccc(Cl)cc5)c5ccc(Cl)cc5)cc34)CC2)cc1 [Compound #3, 2-(4-((4-((6-(bis(4-chlorophenyl)methyl)quinazolin-4-yl)amino)piperidin-1-yl)sulfonyl)phenoxy)acetic acid]
EC50 [1]: 98 nM | EC50 [2]: 3430 nM

Clc1ccc(C(c2ccc(Cl)cc2)c2ccc3ncnc(NC4CCN(c5ccccc5)CC4)c3c2)cc1 [Compound #137, 6-(bis(4-chlorophenyl)methyl)-N-(1-phenylpiperidin-4-yl)quinazolin-4-amine]
EC50 [1]: 2 nM | EC50 [2]: 280 nM

O=S(=O)(NC1CCN(c2ncnc3ccc(C(c4ccc(Cl)cc4)c4ccc(Cl)cc4)cc23)CC1)C(F)(F)F [Compound #104, N-(1-(6-(bis(4-chlorophenyl)methyl)quinazolin-4-yl)piperidin-4-yl)-1,1,1-trifluoromethanesulfonamide]
EC50 [1]: 68 nM | EC50 [2]: > 10000 nM

O=C(NCCCOc1ccc(CO)cc1)c1ccc(S(=O)(=O)N2CCC(Nc3ncnc4ccc(C(c5ccc(Cl)cc5)c5ccc(Cl)cc5)cc34)CC2)cc1 [Compound #26, 4-((4-((6-(bis(4-chlorophenyl)methyl)quinazolin-4-yl)amino)piperidin-1-yl)sulfonyl)-N-(3-(4-(hydroxymethyl)phenoxy)propyl)benzamide]
EC50 [1]: 20 nM | EC50 [2]: > 10000 nM

NC(=O)CCCOc1nc(NCc2ccc(C(F)(F)F)cc2)c2cc(C(c3ccc(Cl)cc3)c3ccc(Cl)cc3)ccc2n1 [Compound #66, 4-((6-(bis(4-chlorophenyl)methyl)-4-((4-(trifluoromethyl)benzyl)amino)quinazolin-2-yl)oxy)butanamide]
EC50 [1]: 8 nM | EC50 [2]: 845 nM

NC(=O)c1ccc(N2CCC(Nc3ncnc4ccc(C(c5ccc(Cl)cc5)c5ccc(Cl)cc5)cc34)CC2)cc1 [Compound #90, 4-(4-((6-(bis(4-chlorophenyl)methyl)quinazolin-4-yl)amino)piperidin-1-yl)benzamide]
EC50 [1]: 34 nM | EC50 [2]: 461 nM

FC(F)(F)c1ccc(N2CCC(Nc3ncnc4ccc(C(c5ccc(Cl)cc5)c5ccc(Cl)cc5)cc34)CC2)cc1 [compound 129, 6-(bis(4-chlorophenyl)methyl)-N-(1-(4-(trifluoromethyl)phenyl)piperidin-4-yl)quinazolin-4-amine]
EC50 [1]: 3 nM | EC50 [2]: 72 nM

C[C@H](Nc1ncnc2ccc(C(c3ccc(Cl)cc3)c3ccc(Cl)cc3)cc12)c1cccc(C(F)(F)F)c1 (single isomer, unassigned) [Compound #112]
EC50 [1]: 10 nM | EC50 [2]: 4700 nM

CCOC(=O)CC(=O)N1CCC(Nc2ncnc3ccc(C(c4ccc(Cl)cc4)c4ccc(Cl)cc4)cc23)CC1 [compound 89, ethyl 3-(4-(6-(bis(4-chlorophenyl)methyl)quinazolin-4-ylamino)piperidin-1-yl)-3-oxopropanoate]
EC50 [1]: 25 nM | EC50 [2]: 1800 nM

FC(F)(F)c1ccc(CNc2ncnc3ccc(C(c4ccc(Cl)cc4)c4ccc(Cl)cc4)cc23)nc1 [compound 127, 6-(bis(4-chlorophenyl)methyl)-N-((5-(trifluoromethyl)pyridin-2-yl)methyl)quinazolin-4-amine]
EC50 [1]: 30 nM | EC50 [2]: 1720 nM

O=S(=O)(CCO)N1CCC(Nc2ncnc3ccc(C(c4ccc(Cl)cc4)c4ccc(Cl)cc4)cc23)CC1 [Compound #78, 2-((4-((6-(bis(4-chlorophenyl)methyl)quinazolin-4-yl)amino)piperidin-1-yl)sulfonyl)ethanol]
EC50 [1]: 16 nM | EC50 [2]: 9400 nM

Fc1cccc(CNc2ncnc3ccc(C(c4ccc(Cl)cc4)c4ccc(Cl)cc4)cc23)c1 [compound 63, 6-(bis(4-chlorophenyl)methyl)-N-(3-fluorobenzyl)quinazolin-4-amine]
EC50 [1]: 10 nM | EC50 [2]: 1200 nM

O=C(O)c1cccc(CN2CCC(Nc3ncnc4ccc(C(c5ccc(Cl)cc5)c5ccc(Cl)cc5)cc34)CC2)c1 [Compound #37, 3-((4-((6-(bis(4-chlorophenyl)methyl)quinazolin-4-yl)amino)piperidin-1-yl)methyl)benzoic acid]
EC50 [1]: 146 nM | EC50 [2]: 6760 nM

NC(=O)CC(=O)N1CCC(Nc2ncnc3ccc(C(c4ccc(Cl)cc4)c4ccc(Cl)cc4)cc23)CC1 [compound 87, 3-(4-(6-(bis(4-chlorophenyl)methyl)quinazolin-4-ylamino)piperidin-1-yl)-3-oxopropanamide]
EC50 [1]: 2920 nM | EC50 [2]: > 10000 nM

O=S(=O)(NC1CCN(c2ncnc3ccc(C(c4ccc(Cl)cc4)c4ccc(Cl)cc4)cc23)C1)C(F)(F)F (stereo not shown) [Compound #9, N-(1-(6-(bis(4-chlorophenyl)methyl)quinazolin-4-yl)pyrrolidin-3-yl)trifluoromethanesulfonamide]
EC50 [1]: 191 nM | EC50 [2]: 150 nM

O=C(O)c1cccc(N2CCC(Nc3ncnc4ccc(C(c5ccc(Cl)cc5)c5ccc(Cl)cc5)cc34)CC2)c1 [compound 95, 3-(4-(6-(bis(4-chlorophenyl)methyl)quinazolin-4-ylamino)piperidin-1-yl)benzoic acid]
EC50 [1]: 818 nM | EC50 [2]: 3160 nM

O=S(=O)(N1CCC(CNc2ncnc3ccc(C(c4ccc(Cl)cc4)c4ccc(Cl)cc4)cc23)CC1)C(F)(F)F [compound 135, 6-(bis(4-chlorophenyl)methyl)-N-((1-(trifluoromethylsulfonyl)piperidin-4-yl)methyl)quinazolin-4-amine]
EC50 [1]: 8 nM | EC50 [2]: 2850 nM

O=C(O)COc1nc(NCc2cccc(C(F)(F)F)c2)c2cc(C(c3ccc(Cl)cc3)c3ccc(Cl)cc3)ccc2n1 [compound 51, 2-((6-(bis(4-chlorophenyl)methyl)-4-((3-(trifluoromethyl)benzyl)amino)quinazolin-2-yl)oxy)acetic acid]
EC50 [1]: 583 nM | EC50 [2]: 3340 nM

CNc1nc(NC2CCN(S(=O)(=O)C(F)(F)F)CC2)c2cc(C(c3ccc(Cl)cc3)c3ccc(Cl)cc3)ccc2n1 [Compound #113, 6-(bis(4-chlorophenyl)methyl)-N2-methyl-N4-(1-((trifluoromethyl)sulfonyl)piperidin-4-yl)quinazoline-2,4-diamine]
EC50 [1]: 254 nM | EC50 [2]: > 10000 nM

Clc1ccc(C(c2ccc(Cl)cc2)c2ccc3ncnc(NC4CCN(c5ccccn5)CC4)c3c2)cc1 [Compound #130, 6-(bis(4-chlorophenyl)methyl)-N-(1-(pyridin-2-yl)piperidin-4-yl)quinazolin-4-amine]
EC50 [1]: 2 nM | EC50 [2]: 154 nM

O=C(O)c1ccc(N2CCC(Nc3ncnc4ccc(C(c5ccc(Cl)cc5)c5ccc(Cl)cc5)cc34)CC2)cc1 [Compound #92, 4-(4-((6-(bis(4-chlorophenyl)methyl)quinazolin-4-yl)amino)piperidin-1-yl)benzoic acid]
EC50 [1]: 695 nM | EC50 [2]: 195 nM
